{"source": "paper PMC4096598", "about": "(PLoS ONE, 2014)", "key": {"[1]": {"system": "Mycobacterium tuberculosis MDR (clinically isolated multidrug resistant strain)", "settings": "MDR (clinically isolated multidrug resistant strain, 24 h)"}, "[2]": {"experiment": "not given", "remark": "listed apart in the source"}, "[3]": {"system": "Mycobacterium tuberculosis MDR (clinically isolated multidrug resistant strain)", "settings": "literature value ref Rastogi, et al., 1996 [55]; cited from earlier work"}}, "note": "“And” between values parts separate entries of the source, which are not always exact repeats. Equal values may be shown once. Read-outs that look alike come from different tables or passages of the source. Ends that are not written are not given here.", "data": [{"compound": "FWGALAKGALKLIPSLFSSFSKKD [Pin2, Pandinin 2, reference compound]", "values": [{"measurement": "MIC Mycobacterium tuberculosis MDR", "setting": "[1]", "value": 33.1, "unit": "µM"}]}, {"compound": "FWGALAKGALKLIGSLFSSFSKKD [Pin2 [G]]", "values": [{"measurement": "alpha-helical structure in absence of TFE", "value": 20, "unit": "%"}, {"measurement": "MIC Mycobacterium tuberculosis MDR", "setting": "[1]", "value": 18.7, "unit": "µM"}, {"measurement": "maximum alpha-helical structure", "setting": "[2]", "value": 60, "unit": "%"}]}, {"compound": "FWGALAKGALKLIGPGSLFSSFSKKD [Pin2 [GPG]]", "values": [{"measurement": "maximum alpha-helical structure", "setting": "[2]", "value": 60, "unit": "%"}]}, {"compound": "FWGLKGLKKFSKKL [Pin2 [14]]", "values": [{"measurement": "MIC Mycobacterium tuberculosis MDR", "setting": "[1]", "value": "6 ± 1.8", "unit": "µM"}]}, {"compound": "CO[C@H]1/C=C/O[C@@]2(C)Oc3c(C)c(O)c4c(O)c(c(/C=N/N5CCN(C)CC5)c(O)c4c3C2=O)NC(=O)/C(C)=C\\C=C\\[C@H](C)[C@H](O)[C@@H](C)[C@@H](O)[C@@H](C)[C@H](OC(C)=O)[C@@H]1C", "note": "[Rifampicin]", "values": [{"measurement": "MIC Mycobacterium tuberculosis MDR", "setting": "[3]", "value": "32 µg/mL and 38.9 µM"}]}, {"compound": "FWGLKGLKGPGKFSKKL [Pin2 [17]]", "values": [{"measurement": "MIC Mycobacterium tuberculosis MDR", "setting": "[1]", "value": "14.8 ± 5.2", "unit": "µM"}]}, {"compound": "CC[C@@H](CO)NCCN[C@@H](CC)CO", "note": "[Ethambutol]", "values": [{"measurement": "MIC Mycobacterium tuberculosis MDR", "setting": "[3]", "value": "20 µg/mL and 97 µM"}]}]}
